Measurements: publication PMC7714071, “Interaction of amyloid beta with humanin and acetylcholinesterase is modulated by ATP” (FEBS Open Bio, 2020)

System: Aβ from H1299 cell-conditioned media
Test: ELISA, HN (endogenous and exogenously added) and AChE bound to Aβ from H1299 media on 82E1 antibody
Assay type: binding, human
Conditions: H1299 media, Fig. 6B
Protocol: Human NSCLC cell lines, A549 (ATCC CCL‐185) and H1299 (ATCC CRL‐5803), were purchased from the American Type Culture Collection (ATCC, Manassas, VA, USA). Cells were seeded as we reported earlier in 5 mL HyClone Dulbecco's modified Eagle's medium/nutrient mixture F‐12 (DMEM/F12) (GE Healthcare Life Sciences, Pittsburgh, PA, USA), supplemented with 10% Fetalgro bovine growth serum (FBS; RMBIO, Missoula, MT, USA), 50 U·mL^−1 penicillin, and […] streptomycin (Invitrogen, Life Technologies, Carlsbad, CA, USA) in 25‐cm^2 tissue culture flasks, and allowed to grow overnight in an incubator at 37 °C, 95% humidity, and 5% CO2. The cells were counted after trypan blue staining, with a hemocytometer.
ELISAs were carried out as we previously reported. Nunc MaxiSorp 96‐well flat bottom plate (Thermo Fisher) wells were coated with samples as indicated. The plates were incubated overnight at 4 °C on a shaker to allow binding of the samples to the plate wells. After the incubation, the wells were washed 4× with TBST, filled with 400 µL blocking buffer (110 mM KCl, 5 mM NaHCO3, 5 mM MgCl2, 1 mM EGTA, 0.1 mM CaCl2, 20 mM HEPES, 1% BSA, pH 7.4), and incubated with shaking overnight at 4 °C. The wells were then washed 4× with TBST, and 100 µL of sample at the desired concentration was added to each well and incubated with shaking overnight at 4 °C. TBST was then used to wash the wells 4× before proceeding in one of two ways: (a) biotinylated samples were analyzed by adding 100 µL streptavidin–HRP conjugate in TBST (1 : 2500 dilution) to the samples followed by incubation for 3 h at RT on a shaker, or (b) samples without biotin were analyzed by adding 100 µL TBST containing the primary antibody as per the manufacturer's recommendation, incubating for 3 h at RT on a shaker, followed by washing the wells 4× with TBST. […] The reaction was stopped with 100 µL 2 M H2SO4 after incubating at RT for 0.5–15 min, resulting in a yellow color change, measured by absorbance at 450 nm. […] Before analysis, the OD from the data was corrected for nonspecific binding by subtracting the mean background absorbance for the negative controls. […] Statistical analysis was determined by the […] […] Data were expressed as the mean ± SD. […]
Anti‐Aβ‐specific antibodies (82E1) were added (1 : 1000 dilution) to ELISA plate wells (Fig. 6). The wells were blocked, and then, 300 µL of the conditioned media (0.5 µg·µL^−1) of A549 or H1299 cells, 72 h postserum starvation, was added in the absence or presence of increasing HN concentrations, and the HN and AChE bound were detected using the corresponding specific primary antibodies. Fold change relative to controls that included all components but without the primary antibodies was calculated and fit with a nonlinear regression curve using the […] […]

| Molecule | effect of ATP on binding of exogenously added HN to Aβ (0.1 mM, 1 mM ATP (more pronounced at 1 mM)) | effect of ATP on binding of endogenous HN to Aβ (increasing ATP (0.1 mM, 1 mM; more pronounced at 1 mM), 82E1) | HN concentration at which signal begins to level off (exogenous HN) | binding of exogenous HN to Aβ (increasing exogenous HN, 82E1) |
| --- | --- | --- | --- | --- |
| Nc1ncnc2c1ncn2[C@@H]1O[C@H](COP(=O)(O)OP(=O)(O)OP(=O)(O)O)[C@@H](O)[C@H]1O [ATP, Adenosine triphosphate] | decreased binding of exogenously added HN | increased binding of endogenous HN | – | – |
| Humanin [HN] | – | – | around 50 nM | increased binding to Aβ |
